The first assay has as its system HBV rcDNA. Briefly: HepDE19 assay with bDNA quantitation of HBV rcDNA. The assay is classed as cell-based, hepatitis B virus. The settings on record: HepDE19 assay, inhibition of formation of rcDNA; read-out: DE-19bDNA EC50. The method, boiled down: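 HepDE19 cells (HepG2-derived, Tet-regulated HBV replication) were deprived of tetracycline and then exposed to compounds for 7 days at 37 °C in 0.5% DMSO, 8-point titration from 25 μM. rcDNA was quantified by bDNA and EC50/EC90 came from 4-parameter fits. CC50 was measured by CellTiter-Glo ATP content on replicate plates after 4 days.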
For orientation: EC50 means the concentration needed to bring the measured effect to its halfway point. Take `CC(c1cn(Cc2nc[nH]n2)c(=O)c2ccccc12)N(C)C(=O)Nc1ccc(F)c(Cl)c1` (single isomer, unassigned) [Compound 269, 1-(1-(2-((1H-1,2,4-Triazol-3-yl)methyl)-1-oxo-1,2-dihydroisoquinolin-4-yl)ethyl)-3-(3-chloro-4-fluorophenyl)-1-methylurea]: the EC50 came out at 0.56 µM.
Same read-out and setting: the result for `COCCN(C(=O)Nc1ccc(F)c(Cl)c1)C(C)c1cnc(OC)c2ccccc12` (single isomer, unassigned) [Compound 73, 3-(3-Chloro-4-fluorophenyl)-1-(2-methoxyethyl)-1-(1-(1-methoxyisoquinolin-4-yl)ethyl)urea] reads 0.78 µM.
As to `CC(c1c[nH]c(=O)c2ccccc12)N(CCNCC(F)F)C(=O)Nc1ccc(F)c(Cl)c1` (single isomer, unassigned) [Compound 199, 3-(3-Chloro-4-fluorophenyl)-1-(2-((2,2-difluoroethyl)amino)ethyl)-1-(1-(1-oxo-1,2-dihydroisoquinolin-4-yl)ethyl)urea], the EC50 is 2.2 µM.
On the same count and under the same terms, the result for `COc1ccc2c(C(C)N(C)C(=O)Nc3ccc(F)c(Cl)c3)c[nH]c(=O)c2c1` (single isomer, unassigned) [Compound 178, 3-(3-Chloro-4-fluorophenyl)-1-(1-(7-methoxy-1-oxo-1,2-dihydroisoquinolin-4-yl)ethyl)-1-methylurea] reads 0.17 µM.
Same read-out and setting: the result for `CC(c1cnc(OCc2ncn(C)n2)c2ccccc12)N(C)C(=O)Nc1ccc(F)c(Cl)c1` (single isomer, unassigned) [Compound 132, 3-(3-Chloro-4-fluorophenyl)-1-methyl-1-(1-(1-((1-methyl-1H-1,2,4-triazol-3-yl)methoxy)isoquinolin-4-yl)ethyl)urea] reads 0.06 µM; that for `COc1ncc(C(CCO)NC(=O)Nc2ccc(F)c(Cl)c2)c2ccccc12` (single isomer, unassigned) [Compound 78, 1-(3-Chloro-4-fluorophenyl)-3-(3-hydroxy-1-(1-methoxyisoquinolin-4-yl)propyl)urea], 24 µM.
The same measure, in the same setting: the result for `CC(c1cnc(NCc2cn[nH]n2)c2ccccc12)N(C)C(=O)Nc1ccc(F)c(Cl)c1` (single isomer, unassigned) [Compound 261, 1-(1-(1-(((2H-1,2,3-Triazol-4-yl)methyl)amino)isoquinolin-4-yl)ethyl)-3-(3-chloro-4-fluorophenyl)-1-methylurea] reads 6.1 µM.
On to `CC(c1c[nH]c(=O)c2ccccc12)N(CCCCO)C(=O)Nc1ccc(F)c(Cl)c1` (single isomer, unassigned) [Compound 150, 3-(3-Chloro-4-fluorophenyl)-1-(4-hydroxybutyl)-1-(1-(1-oxo-1,2-dihydroisoquinolin-4-yl)ethyl)urea], for which the EC50 was determined as 0.01 µM.
Turning to `CNC(=O)CCN(C(=O)Nc1ccc(F)c(Cl)c1)C(C)c1c[nH]c(=O)c2ccccc12` (single isomer, unassigned) [Compound 117, 3-(3-(3-Chloro-4-fluorophenyl)-1-(1-(1-oxo-1,2-dihydroisoquinolin-4-yl)ethyl)ureido)-N-methylpropanamide], the EC50 was determined as 13 µM.

The same assay, now with this note: HepDE19 assay, inhibition of formation of relaxed circular DNA (rcDNA), bDNA quantitation; read-out: DE-19bDNA EC50.
As to `CC(c1cnc(OCc2ncn(C)n2)c2cc(F)c(F)cc12)N(CCCO)C(=O)Nc1ccc(F)c(Cl)c1` (single isomer, unassigned) [Compound 348, 3-(3-chloro-4-fluorophenyl)-1-(1-(6,7-difluoro-1-((1-methyl-1H-1,2,4-triazol-3-yl)methoxy)isoquinolin-4-yl)ethyl)-1-(3-hydroxypropyl)urea], the EC50 amounted to 1.1 µM.
Same read-out and setting: the result for `CC(c1c[nH]c(=O)c2cc(F)c(F)cc12)N(C)C(=O)Nc1ccc2cc[nH]c2c1` (single isomer, unassigned) [Compound 486, 1-(1-(6,7-Difluoro-1-oxo-1,2-dihydroisoquinolin-4-yl)ethyl)-3-(1H-indol-6-yl)-1-methylurea] reads 0.2 µM; that for `CC(c1c[nH]c(=O)c2c(F)c(F)ccc12)N(CCS(N)(=O)=O)C(=O)Nc1ccc(F)c(Cl)c1` (single isomer, unassigned) [Compound 392, 2-(3-(3-Chloro-4-fluorophenyl)-1-(1-(7,8-difluoro-1-oxo-1,2-dihydroisoquinolin-4-yl)ethyl)ureido) ethane-1-sulfonamide], 0.026 µM.

The same assay, now with this note: Hepatitis B virus, HepDE19, HepDE19 assay, inhibition of formation of rcDNA; read-out: DE-19bDNA EC50.
On to `CC(c1c[nH]c(=O)c2ccccc12)N(CCC(=O)O)C(=O)Nc1ccc(F)c(Cl)c1` (single isomer, unassigned) [Compound 208, 3-(3-(3-Chloro-4-fluorophenyl)-1-(1-(1-oxo-1,2-dihydroisoquinolin-4-yl)ethyl)ureido)propanoic acid], for which the EC50 was 3.3 µM.
Regarding `CC(c1c[nH]c(=O)c2ccccc12)N(CC1CCOCC1)C(=O)Nc1ccc(F)c(Cl)c1` (racemic) [Compound 134, 3-(3-chloro-4-fluorophenyl)-1-(1-(1-oxo-1,2-dihydroisoquinolin-4-yl)ethyl)-1-((tetrahydro-2H-pyran-4-yl)methyl)urea], the EC50 came to 0.07 µM.
Same read-out and setting: the result for `COc1ncc(CN(CC2CC2)C(=O)Nc2ccc(F)c(Cl)c2)c2ccccc12` [Compound 31, 3-(3-Chloro-4-fluorophenyl)-1-(cyclopropylmethyl)-1-((1-methoxyisoquinolin-4-yl)methyl)urea] reads 0.87 µM.
As for `CC(c1c[nH]c(=O)c2ccccc12)N(CCC#N)C(=O)Nc1ccc(F)c(Cl)c1` (racemic) [Compound 103, 3-(3-chloro-4-fluorophenyl)-1-(2-cyanoethyl)-1-(1-(1-oxo-1,2-dihydroisoquinolin-4-yl)ethyl)urea], the EC50 amounted to 0.27 µM.
Still for that read-out and setting: the result for `CC(c1c[nH]c(=O)c2cc(F)ccc12)N(C)C(=O)Nc1ccc(F)c(Cl)c1` (racemic) [Compound 257, 3-(3-Chloro-4-fluorophenyl)-1-(1-(7-fluoro-1-oxo-1,2-dihydroisoquinolin-4-yl)ethyl)-1-methylurea] reads 0.033 µM.

The same assay, now with this note: Hepatitis B virus, HepDE19, HepDE19 assay, inhibition of formation of relaxed circular DNA (rcDNA), bDNA quantitation; read-out: DE-19bDNA EC50.
With `CC(c1cnc(-n2cncn2)c2ccccc12)N(C)C(=O)Nc1ccc(F)c(Cl)c1` (racemic) [Compound 297, 1-(1-(1-(1H-1,2,4-triazol-1-yl)isoquinolin-4-yl)ethyl)-3-(3-chloro-4-fluorophenyl)-1-methylurea], the EC50 worked out at 0.18 µM.
As to `CC(C)CN(C(=O)Nc1ccc(F)c(Cl)c1)C(C)c1cnc(-n2ccnn2)c2ccccc12` (racemic) [Compound 355, 1-(1-(1-(1H-1,2,3-Triazol-1-yl)isoquinolin-4-yl)ethyl)-3-(3-chloro-4-fluorophenyl)-1-isobutylurea], the EC50 was found to be 0.018 µM.

The same assay, now with this note: Hepatitis B virus, HepDE19, read-out: DE-19bDNA EC50 (μM), HepDE19 assay, inhibition of formation of relaxed circular DNA (rcDNA), bDNA quantitation.
`[2H]C([2H])([2H])N(C(=O)Nc1ccc(F)c(Cl)c1)C(C)c1c[nH]c(=O)c2cc(F)c(F)cc12` (single isomer, unassigned) [Compound 472, 3-(3-Chloro-4-fluorophenyl)-1-(1-(6,7-difluoro-1-oxo-1,2-dihydroisoquinolin-4-yl)ethyl)-1-(methyl-d3)urea]: the EC50 was 0.007 µM.

The same assay, now with this note: read-out: DE-19bDNA EC50; HepDE19 assay, inhibition of formation of relaxed circular DNA (rcDNA), bDNA quantitation.
Turning to `CC(c1c[nH]c(=O)c2c(F)c(F)ccc12)N(C)C(=O)Nc1cccc(Cl)c1` (single isomer, unassigned) [Compound 461, 3-(3-Chlorophenyl)-1-(1-(7,8-difluoro-1-oxo-1,2-dihydroisoquinolin-4-yl)ethyl)-1-methylurea], the EC50 was determined as 0.011 µM.
In the case of `CN(C(=O)Nc1ccc(F)c(Cl)c1)C(CO)c1c[nH]c(=O)c2ccccc12` (single isomer, unassigned) [Compound 380, 3-(3-Chloro-4-fluorophenyl)-1-(2-hydroxy-1-(1-oxo-1,2-dihydroisoquinolin-4-yl)ethyl)-1-methylurea], the EC50 was 17 µM.

(Values after patent publication US20230045421A1 (priority 2018, published 2023).)
